Experimental data: ChEMBL document CHEMBL1155854, “Conformationally constrained farnesoid X receptor (FXR) agonists: Naphthoic acid-based analogs of GW 4064” (Bioorg Med Chem Lett, 2008)
pEC50, pIC50: −log10 of the molar value. Values after ≈ are worked out from the molar mass of the structure shown. Active and inactive are the calls of the source. The rule behind the calls is not given here.

Assays:
[1] = Solubility in simulated gastric fluid at pH 1; type: physicochemical; conditions: simulated gi fluid
[2] = target: T1, Bile acid receptor (Homo sapiens) (UniProt Q96RI1); test: Agonist activity at FXR expressed in african green monkey CV1 cells by luciferase reporter transient transfection assay relative to GW-4064; type: functional, cell-based; conditions: CV-1
T1 sequence (whole entry): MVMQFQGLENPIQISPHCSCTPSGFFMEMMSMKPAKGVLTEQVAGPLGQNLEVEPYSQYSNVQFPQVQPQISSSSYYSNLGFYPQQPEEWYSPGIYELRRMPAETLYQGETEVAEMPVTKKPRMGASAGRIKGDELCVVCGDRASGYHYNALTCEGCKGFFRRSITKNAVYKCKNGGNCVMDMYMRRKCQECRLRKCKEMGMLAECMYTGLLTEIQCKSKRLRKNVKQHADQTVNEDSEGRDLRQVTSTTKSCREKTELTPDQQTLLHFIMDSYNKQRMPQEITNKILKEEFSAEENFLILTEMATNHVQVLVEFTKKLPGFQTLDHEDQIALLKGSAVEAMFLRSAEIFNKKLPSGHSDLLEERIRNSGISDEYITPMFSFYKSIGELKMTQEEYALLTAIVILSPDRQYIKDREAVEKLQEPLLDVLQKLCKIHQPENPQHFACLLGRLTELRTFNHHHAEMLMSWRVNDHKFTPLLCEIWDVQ

[3] = target: Nuclear receptor subfamily 5 group A member 2 (Homo sapiens, UniProt O00482); test: Agonist activity at LRH assessed as receptor-coactivator peptide interaction by FRET assay; type: functional
Chain of Nuclear receptor subfamily 5 group A member 2 (O00482 whole entry): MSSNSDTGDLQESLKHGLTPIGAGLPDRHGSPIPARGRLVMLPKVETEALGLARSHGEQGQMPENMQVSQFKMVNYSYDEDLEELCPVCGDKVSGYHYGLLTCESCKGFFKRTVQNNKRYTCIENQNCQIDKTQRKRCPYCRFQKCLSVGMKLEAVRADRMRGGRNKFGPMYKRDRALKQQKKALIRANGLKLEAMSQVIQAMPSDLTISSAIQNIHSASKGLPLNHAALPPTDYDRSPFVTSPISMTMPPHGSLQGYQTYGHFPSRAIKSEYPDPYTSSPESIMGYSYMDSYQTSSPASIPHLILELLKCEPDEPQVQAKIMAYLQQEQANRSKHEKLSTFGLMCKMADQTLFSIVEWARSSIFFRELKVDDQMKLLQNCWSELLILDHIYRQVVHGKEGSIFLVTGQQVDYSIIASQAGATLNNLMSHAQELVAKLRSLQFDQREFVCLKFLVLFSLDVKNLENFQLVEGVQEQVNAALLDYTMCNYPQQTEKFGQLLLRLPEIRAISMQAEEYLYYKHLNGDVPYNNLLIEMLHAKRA

Rattus norvegicus = test: Reduction of serum direct bilirubin level in alpha-naphthyl-isothiocyanate-induced rat acute cholestasis model at 100 to 300 mg/kg, po bid for 4 days dosed before 2 days induction by alpha-naphthyl-isothiocyanate; type: functional, organism-based
[4] = Apparent permeability in MDCK cells; type: ADME, cell-based, Canis lupus familiaris; conditions: dog
PXR [5] = target: T2, PXR (Homo sapiens, UniProt O75469); test: Agonist activity at PXR by SPA assay relative to GW-4064; type: functional; conditions: read-out: %max
T2 sequence (O75469 whole entry): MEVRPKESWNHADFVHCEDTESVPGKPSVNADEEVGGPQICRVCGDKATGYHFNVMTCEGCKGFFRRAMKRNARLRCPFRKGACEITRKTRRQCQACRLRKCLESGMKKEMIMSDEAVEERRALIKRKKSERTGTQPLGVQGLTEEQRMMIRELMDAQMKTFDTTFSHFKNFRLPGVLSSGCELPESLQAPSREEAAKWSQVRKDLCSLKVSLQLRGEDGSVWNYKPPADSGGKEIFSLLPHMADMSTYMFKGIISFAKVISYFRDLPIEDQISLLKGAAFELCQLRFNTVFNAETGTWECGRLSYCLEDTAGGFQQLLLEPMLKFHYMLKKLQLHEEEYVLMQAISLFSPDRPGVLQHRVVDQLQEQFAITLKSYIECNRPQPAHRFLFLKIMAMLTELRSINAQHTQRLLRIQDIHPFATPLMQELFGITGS

[6] = Oral bioavailability in mouse at 30 mg/kg; type: ADME, organism-based; conditions: in vivo
[7] = Half life in iv dosed mouse; type: ADME, organism-based; conditions: in vivo
Bile acid receptor = target: T3, Bile acid receptor (Homo sapiens, UniProt Q96RI1); test: Agonist activity at FXR assessed as receptor-SRC-1 peptide interaction by FRET assay; type: functional
T3 sequence (Q96RI1 whole entry): T1 sequence (whole entry)

[8] = Half life in iv dosed cynomolgus monkey; type: ADME, organism-based, Macaca fascicularis; conditions: in vivo
Cytochrome P450 3A4 [9] = target: T4, Cytochrome P450 3A4 (Homo sapiens, UniProt P08684); test: Inhibition of CYP3A4 in pooled human liver microsome using atrovastatin substrate; type: ADME, microsomes
T4 sequence (P08684 whole entry): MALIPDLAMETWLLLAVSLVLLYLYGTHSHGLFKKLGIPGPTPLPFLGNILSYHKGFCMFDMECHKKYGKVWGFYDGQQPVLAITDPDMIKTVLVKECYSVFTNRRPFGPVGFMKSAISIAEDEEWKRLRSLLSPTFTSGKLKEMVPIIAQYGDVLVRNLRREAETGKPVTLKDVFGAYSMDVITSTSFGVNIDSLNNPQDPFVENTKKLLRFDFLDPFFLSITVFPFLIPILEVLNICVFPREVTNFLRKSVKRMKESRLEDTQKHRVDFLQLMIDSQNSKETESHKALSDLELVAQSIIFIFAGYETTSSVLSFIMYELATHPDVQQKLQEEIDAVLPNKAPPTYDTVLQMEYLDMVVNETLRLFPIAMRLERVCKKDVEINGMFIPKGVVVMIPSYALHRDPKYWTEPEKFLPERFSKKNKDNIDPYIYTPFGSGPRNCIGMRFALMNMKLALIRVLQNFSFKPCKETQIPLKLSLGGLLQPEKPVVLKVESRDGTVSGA

[10] = target: T5, Peroxisome proliferator-activated receptor delta (Homo sapiens, UniProt Q03181); test: Agonist activity at PPARdelta by transient transfection assay; type: functional
T5 sequence (Q03181 whole entry): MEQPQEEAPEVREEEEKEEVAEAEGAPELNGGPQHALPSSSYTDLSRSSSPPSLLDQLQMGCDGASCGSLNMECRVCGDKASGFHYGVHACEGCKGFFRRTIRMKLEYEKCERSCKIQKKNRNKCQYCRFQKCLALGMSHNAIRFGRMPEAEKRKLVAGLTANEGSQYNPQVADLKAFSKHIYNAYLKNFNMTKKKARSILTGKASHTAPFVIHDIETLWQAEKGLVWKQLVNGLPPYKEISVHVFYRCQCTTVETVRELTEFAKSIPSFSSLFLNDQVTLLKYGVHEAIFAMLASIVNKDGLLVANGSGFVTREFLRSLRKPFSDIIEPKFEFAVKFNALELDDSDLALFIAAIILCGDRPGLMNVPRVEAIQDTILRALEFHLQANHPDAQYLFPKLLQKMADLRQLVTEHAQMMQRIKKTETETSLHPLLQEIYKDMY

[11] = Oral bioavailability in rat at 30 mg/kg; type: ADME, organism-based; conditions: in vivo
Cytochrome P450 3A4 [12] = target: T4, Cytochrome P450 3A4; test: Inhibition of CYP3A4 in pooled human liver microsome using nifedipine substrate; type: ADME, microsomes
[13] = Half life in iv dosed Beagle dog; type: ADME, organism-based, Canis lupus familiaris; conditions: in vivo
[14] = Clearance in iv dosed rat; type: ADME, organism-based; conditions: in vivo
[15] = Solubility in fasted state-simulated intestinal fluid at pH 6.5; type: physicochemical; conditions: simulated gi fluid
PXR [16] = target: T2, PXR; test: Agonist activity at PXR by SPA assay; type: functional
Cytochrome P450 2C9 = Cytochrome P450 2C9 (Homo sapiens, UniProt P11712); test: Inhibition of CYP2C9 in pooled human liver microsome; type: ADME
Chain of Cytochrome P450 2C9 (P11712 whole entry): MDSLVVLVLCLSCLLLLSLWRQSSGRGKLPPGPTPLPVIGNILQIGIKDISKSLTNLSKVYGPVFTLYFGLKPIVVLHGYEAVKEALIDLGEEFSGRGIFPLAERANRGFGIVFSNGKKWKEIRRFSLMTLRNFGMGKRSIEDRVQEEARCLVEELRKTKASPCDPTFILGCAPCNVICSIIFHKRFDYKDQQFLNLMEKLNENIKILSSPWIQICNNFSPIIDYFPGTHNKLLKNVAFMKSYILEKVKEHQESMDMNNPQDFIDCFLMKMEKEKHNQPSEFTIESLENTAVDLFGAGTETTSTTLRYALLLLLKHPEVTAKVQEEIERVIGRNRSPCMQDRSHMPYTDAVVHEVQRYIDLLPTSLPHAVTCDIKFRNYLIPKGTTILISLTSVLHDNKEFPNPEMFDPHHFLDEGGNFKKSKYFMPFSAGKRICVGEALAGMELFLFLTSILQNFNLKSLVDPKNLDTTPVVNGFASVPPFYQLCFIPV

Cytochrome P450 1A2 = target: T6, Cytochrome P450 1A2 (Homo sapiens, UniProt P05177); test: Inhibition of CYP1A2 in pooled human liver microsome; type: ADME, microsomes
T6 sequence (P05177 whole entry): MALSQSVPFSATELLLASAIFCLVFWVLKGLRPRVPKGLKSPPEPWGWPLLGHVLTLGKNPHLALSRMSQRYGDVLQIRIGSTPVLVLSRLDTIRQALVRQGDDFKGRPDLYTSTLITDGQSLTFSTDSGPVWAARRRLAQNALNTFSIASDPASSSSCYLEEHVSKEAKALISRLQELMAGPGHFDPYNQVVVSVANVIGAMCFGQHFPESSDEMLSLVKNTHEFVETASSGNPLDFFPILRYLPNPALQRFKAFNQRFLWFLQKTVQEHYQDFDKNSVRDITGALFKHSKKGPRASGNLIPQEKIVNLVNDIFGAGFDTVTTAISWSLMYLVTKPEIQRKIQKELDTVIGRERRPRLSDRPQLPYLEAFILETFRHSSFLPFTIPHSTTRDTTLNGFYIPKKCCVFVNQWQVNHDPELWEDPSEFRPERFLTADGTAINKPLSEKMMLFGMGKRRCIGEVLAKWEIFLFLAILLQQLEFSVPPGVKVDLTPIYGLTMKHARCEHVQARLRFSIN

[17] = Clearance in iv dosed cynomolgus monkey; type: ADME, organism-based, Macaca fascicularis; conditions: in vivo
[18] = Volume of distribution at steady state in iv dosed mouse; type: ADME, organism-based; conditions: in vivo, read-out: Vdss
Estrogen receptor beta = Estrogen receptor beta (Homo sapiens, UniProt Q92731); test: Agonist activity at ERbeta by fluorescence polarization assay; type: functional
Chain of Estrogen receptor beta (Q92731 whole entry): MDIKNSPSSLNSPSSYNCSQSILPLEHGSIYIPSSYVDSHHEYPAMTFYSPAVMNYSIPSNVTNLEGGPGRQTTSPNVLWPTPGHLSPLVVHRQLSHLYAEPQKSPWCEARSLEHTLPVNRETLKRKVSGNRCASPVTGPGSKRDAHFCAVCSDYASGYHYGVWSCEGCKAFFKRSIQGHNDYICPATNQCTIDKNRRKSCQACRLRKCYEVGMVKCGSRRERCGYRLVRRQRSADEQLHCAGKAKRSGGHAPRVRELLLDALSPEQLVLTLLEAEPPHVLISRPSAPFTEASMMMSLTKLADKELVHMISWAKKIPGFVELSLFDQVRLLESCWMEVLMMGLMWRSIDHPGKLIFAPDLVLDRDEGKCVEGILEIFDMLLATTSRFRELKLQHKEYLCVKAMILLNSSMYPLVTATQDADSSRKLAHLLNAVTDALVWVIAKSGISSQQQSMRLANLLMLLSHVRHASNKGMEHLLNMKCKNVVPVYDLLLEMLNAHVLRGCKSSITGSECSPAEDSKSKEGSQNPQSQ

Structure (SMILES): CC(C)c1onc(-c2c(Cl)cccc2Cl)c1COc1ccc(-c2ccc3c(C(=O)O)cccc3c2)cc1
- solubility [1]: < 0.001 µg/mL
- %max [2]: 104%
- XC50 [3]: > 10 µM
- Activity (Rattus norvegicus): Active
- Papp [4]: 19 ×10⁻⁶ cm/s
- Emax (PXR [5]): 63%
- bioavailability [6]: 3.9%
- half-life [7]: 1.6 h
- pEC50 (Bile acid receptor): 7.06
- half-life [8]: 1.5 h
- pIC50 (Cytochrome P450 3A4 [9]): 5.34
- XC50 [10]: > 10 µM
- bioavailability [11]: 7.7%
- pIC50 (Cytochrome P450 3A4 [12]): 5.06
- half-life [13]: 4.17 h
- clearance [14]: 57 mL/min/kg
- solubility [15]: 1 µg/mL (≈ 1.88 µM)
- XC50 (PXR [16]): 3.1 µM
- pIC50 (Cytochrome P450 2C9): 4.77
- pIC50 (Cytochrome P450 1A2): 4.64
- clearance [17]: 5.5 mL/min/kg
- Vd [18]: 0.4 L/kg
- XC50 (Estrogen receptor beta): > 20 µM
